# Values of other authors as cited in US7718385B2, “Bioactivation of alkylating agents for cancer treatment” (priority 2003, dated 2010).
# Tests used:
# [1] = system: MOLT-4; conditions: MOLT-4, Leukemia, cited from earlier work
# [2] = system: NCI-H522; conditions: NCI-H522, Non-Small Cell Lung, cited from earlier work
# [3] = system: COLO 205; conditions: COLO 205, Colon, cited from earlier work
# [4] = system: HCC-2998; conditions: HCC-2998, Colon, cited from earlier work
# [5] = system: HT29; conditions: HT29, Colon, cited from earlier work
# [6] = system: KM12; conditions: KM12, Colon, cited from earlier work
# [7] = system: SF-268; conditions: SF-268, Central Nervous System, cited from earlier work
# [8] = system: M14; conditions: M14, Melanoma, cited from earlier work
# [9] = system: SK-MEL-28; conditions: SK-MEL-28, Melanoma, cited from earlier work
# [10] = system: IGROVI; conditions: cited from earlier work
# [11] = system: OVCAR-3; conditions: OVCAR-3, Ovarian, cited from earlier work
# [12] = system: OVCAR-8; conditions: OVCAR-8, Ovarian, cited from earlier work
# [13] = system: ACHN; conditions: Renal; cited from earlier work
# [14] = system: CAKI-1; conditions: CAKI-1, Renal, cited from earlier work
# [15] = system: SN12C; conditions: cited from earlier work
# [16] = system: TK-10; conditions: TK-10, Renal, cited from earlier work
# [17] = system: DU-145; conditions: DU-145, Prostate, cited from earlier work
# [18] = system: MCF7; conditions: MCF7, Breast, cited from earlier work
# [19] = system: NCI/ADR-RES; conditions: cited from earlier work
# [20] = system: MDA-MB 435; conditions: MDA-MB 435, Breast, cited from earlier work
# [21] = system: T-47D; conditions: cited from earlier work
smiles,measurement,setting,value
"CC1=C(CO)C2=C(C)C3(CC3)[C@@](C)(O)C(=O)C2=C1 [Irofulven, 6-hydroxymethylacylfulvene]",GI50,[1],794 nM
same,TGI,[1],2.00E−05
same,log(GI50),[1],−6.1
same,log(TGI),[1],−4.7
same,CC50,[1]; read-out: LC50,≥ 100 µM
same,GI50,[2],158 nM
same,TGI,[2],6.31E−07
same,log(GI50),[2],−6.8
same,log(LC50),[2],−5.1
same,log(TGI),[2],−6.2
same,CC50,[2]; read-out: LC50,7.94 µM
same,GI50,[3],158 nM
same,TGI,[3],5.01E−07
same,log(GI50),[3],−6.8
same,log(LC50),[3],−6.2
same,log(TGI),[3],−6.3
same,CC50,[3]; read-out: LC50,631 nM
same,GI50,[4],158 nM
same,TGI,[4],3.16E−07
same,log(GI50),[4],−6.8
same,log(LC50),[4],−6.2
same,log(TGI),[4],−6.5
same,CC50,[4]; read-out: LC50,631 nM
same,GI50,[5],251 nM
same,TGI,[5],1.26E−06
same,log(GI50),[5],−6.6
same,log(TGI),[5],−5.9
same,CC50,[5]; read-out: LC50,≥ 100 µM
same,GI50,[6],631 nM
same,TGI,[6],2.51E−06
same,log(GI50),[6],−6.2
same,log(LC50),[6],−4.9
same,log(TGI),[6],−5.6
same,CC50,[6]; read-out: LC50,12.6 µM
same,GI50,[7],251 nM
same,TGI,[7],2.51E−06
same,log(GI50),[7],−6.6
same,log(TGI),[7],−5.6
same,CC50,[7]; read-out: LC50,≥ 100 µM
same,GI50,[8],251 nM
same,TGI,[8],6.31E−07
same,log(GI50),[8],−6.6
same,log(LC50),[8],−5.7
same,log(TGI),[8],−6.2
same,CC50,[8]; read-out: LC50,2000 nM
same,GI50,[9],631 nM
same,TGI,[9],1.58E−06
same,log(GI50),[9],−6.2
same,log(LC50),[9],−4.7
same,log(TGI),[9],−5.8
same,CC50,[9]; read-out: LC50,20 µM
same,GI50,[10]; Ovarian,158 nM
same,TGI,[10]; Ovarian,5.01E−07
same,log(GI50),[10]; Ovarian,−6.8
same,log(LC50),[10]; Ovarian,−5.2
same,log(TGI),[10]; Ovarian,−6.3
same,CC50,"[10]; read-out: LC50, Ovarian",6.31 µM
same,GI50,[11],251 nM
same,TGI,[11],6.31E−07
same,log(GI50),[11],−6.6
same,log(TGI),[11],−6.2
same,CC50,[11]; read-out: LC50,≥ 100 µM
same,GI50,[12],200 nM
same,TGI,[12],6.31E−07
same,log(GI50),[12],−6.7
same,log(LC50),[12],−5
same,log(TGI),[12],−6.2
same,CC50,[12]; read-out: LC50,10 µM
same,GI50,[13],251 nM
same,TGI,[13],1.00E−06
same,log(GI50),[13],−6.6
same,log(TGI),[13],−6
same,GI50,[14],251 nM
same,TGI,[14],7.94E−07
same,log(GI50),[14],−6.6
same,log(LC50),[14],−4.3
same,log(TGI),[14],−6.1
same,CC50,[14]; read-out: LC50,50.1 µM
same,GI50,[15]; Renal,398 nM
same,TGI,[15]; Renal,5.01E−06
same,log(GI50),[15]; Renal,−6.4
same,log(LC50),[15]; Renal,−4.3
same,log(TGI),[15]; Renal,−5.3
same,CC50,"[15]; read-out: LC50, Renal",50.1 µM
same,GI50,[16],251 nM
same,TGI,[16],1.26E−06
same,log(GI50),[16],−6.6
same,log(TGI),[16],−5.9
same,CC50,[16]; read-out: LC50,≥ 100 µM
same,GI50,[17],100 nM
same,TGI,[17],2.00E−07
same,log(GI50),[17],−7
same,log(TGI),[17],−6.7
same,CC50,[17]; read-out: LC50,≥ 100 µM
same,GI50,[18],251 nM
same,TGI,[18],2.00E−06
same,log(GI50),[18],−6.6
same,log(TGI),[18],−5.7
same,CC50,[18]; read-out: LC50,≥ 100 µM
same,GI50,[19]; Breast,251 nM
same,TGI,[19]; Breast,7.94E−07
same,log(GI50),[19]; Breast,−6.6
same,log(LC50),[19]; Breast,−5.3
same,log(TGI),[19]; Breast,−6.1
same,CC50,"[19]; read-out: LC50, Breast",5.01 µM
same,GI50,[20],1580 nM
same,TGI,[20],6.31E−06
same,log(GI50),[20],−5.8
same,log(LC50),[20],−4.4
same,log(TGI),[20],−5.2
same,CC50,[20]; read-out: LC50,39.8 µM
same,GI50,[21]; Breast,200 nM
same,TGI,[21]; Breast,2.51E−06
same,log(GI50),[21]; Breast,−6.7
same,log(TGI),[21]; Breast,−5.6
same,CC50,"[21]; read-out: LC50, Breast",≥ 100 µM
